In ChEMBL document CHEMBL1201861, “Genomics of Drug Sensitity in Cancer screening data, Wellcome Trust Sanger Institute”:

Columns and labels:
Test in all cases: cells
Panc1005 = type: functional, cell-based, Homo sapiens; conditions: Homo sapiens, Panc1005;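 further: growth inhibition of human PANC-10-05 cells, measured by a cell viability assay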
Description: SANGER: Inhibition of human PANC-10-05 cell growth in a cell viability assay.

IMR-5 = type: functional, cell-based, Homo sapiens; conditions: Homo sapiens, IMR-5;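 further: growth inhibition of human IMR-5 cells, read out with a cell viability assay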
Description: SANGER: Inhibition of human IMR-5 cell growth in a cell viability assay.

SJRH30 = type: functional, cell-based, Homo sapiens; conditions: Homo sapiens, SJRH30;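 further: growth inhibition of human SJRH30 cells, read out with a cell viability assay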
Description: SANGER: Inhibition of human SJRH30 cell growth in a cell viability assay.

REH = type: functional, cell-based, Homo sapiens; conditions: Homo sapiens, REH;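 further: growth inhibition of REH cells determined with a cell viability read-out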
Description: SANGER: Inhibition of human REH cell growth in a cell viability assay.

CHP-212 = type: functional, cell-based, Homo sapiens; conditions: Homo sapiens, CHP-212
Description: SANGER: Inhibition of human CHP-212 cell growth in a cell viability assay.

HCC1569 = type: functional, cell-based, Homo sapiens; conditions: Homo sapiens, HCC1569;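 further: growth inhibition of human HCC1569 cells, read out with a cell viability assay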
Description: SANGER: Inhibition of human HCC1569 cell growth in a cell viability assay.

CAL-12T = type: functional, cell-based, Homo sapiens; conditions: Homo sapiens, CAL-12T;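 further: growth inhibition of human CAL-12T cells, read out with a cell viability assay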
Description: SANGER: Inhibition of human CAL-12T cell growth in a cell viability assay.

RT-112 = type: functional, cell-based, Homo sapiens; conditions: Homo sapiens, RT-112
Description: SANGER: Inhibition of human RT-112 cell growth in a cell viability assay.

SK-MEL-2 = type: functional, cell-based, Homo sapiens; conditions: Homo sapiens, SK-MEL-2;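 further: growth inhibition of human SK-MEL-2 cells measured with a cell viability assay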
Description: SANGER: Inhibition of human SK-MEL-2 cell growth in a cell viability assay.

MHH-NB-11 = type: functional, cell-based, Homo sapiens; conditions: Homo sapiens, MHH-NB-11;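 further: growth inhibition of human MHH-NB-11 cells, read out by a cell viability assay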
Description: SANGER: Inhibition of human MHH-NB-11 cell growth in a cell viability assay.

KM12 = type: functional, cell-based, Homo sapiens; conditions: Homo sapiens, KM12;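 further: KM12 cell growth inhibition, read out with a cell viability assay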
Description: SANGER: Inhibition of human KM12 cell growth in a cell viability assay.

D-263MG = type: functional, cell-based, Homo sapiens; conditions: Homo sapiens, D-263MG
Description: SANGER: Inhibition of human D-263MG cell growth in a cell viability assay.

BCPAP = type: functional, cell-based, Homo sapiens; conditions: Homo sapiens, BCPAP;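 further: growth inhibition of BCPAP cells, read out in a cell viability assay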
Description: SANGER: Inhibition of human BCPAP cell growth in a cell viability assay.

MFH-ino = type: functional, cell-based, Homo sapiens; conditions: Homo sapiens, MFH-ino;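 further: growth inhibition of human MFH-ino cells, read out by a cell viability assay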
Description: SANGER: Inhibition of human MFH-ino cell growth in a cell viability assay.

SF-126 = type: functional, cell-based, Homo sapiens; conditions: Homo sapiens, SF-126;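 further: growth inhibition of human SF126 cells, read out with a cell viability assay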
Description: SANGER: Inhibition of human SF126 cell growth in a cell viability assay.

A2058 = type: functional, cell-based, Homo sapiens; conditions: Homo sapiens, A2058;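 further: reduction of A2058 cell growth, read out with a viability assay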
Description: SANGER: Inhibition of human A2058 cell growth in a cell viability assay.

SIMA = type: functional, cell-based, Homo sapiens; conditions: Homo sapiens, SIMA;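 further: growth inhibition of SIMA cells, measured with a cell viability readout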
Description: SANGER: Inhibition of human SIMA cell growth in a cell viability assay.

EW-18 = type: functional, cell-based, Homo sapiens; conditions: Homo sapiens, EW-18;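 further: growth inhibition of EW-18 cells, read out by a cell viability assay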
Description: SANGER: Inhibition of human EW-18 cell growth in a cell viability assay.

Ca-Ski = type: functional, cell-based, Homo sapiens; conditions: Homo sapiens, Ca-Ski;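 further: cell viability assay measuring inhibition of Ca-Ski cell growth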
Description: SANGER: Inhibition of human Ca-Ski cell growth in a cell viability assay.

PF-382 = type: functional, cell-based, Homo sapiens; conditions: Homo sapiens, PF-382
Description: SANGER: Inhibition of human PF-382 cell growth in a cell viability assay.

CTB-1 = type: functional, cell-based, Homo sapiens; conditions: Homo sapiens, CTB-1
Description: SANGER: Inhibition of human CTB-1 cell growth in a cell viability assay.

MHH-PREB-1 = type: functional, cell-based, Homo sapiens; conditions: Homo sapiens, MHH-PREB-1;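 further: cell viability assay measuring inhibition of proliferation of human MHH-PREB-1 cells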
Description: SANGER: Inhibition of human MHH-PREB-1 cell growth in a cell viability assay.

SK-MEL3 = type: functional, cell-based, Homo sapiens, SK-MEL-3; conditions: Homo sapiens, SK-MEL3;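 further: growth inhibition of human SK-MEL-3 cells, read out with a cell viability assay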
Description: SANGER: Inhibition of human SK-MEL-3 cell growth in a cell viability assay.

COR-L23 = type: functional, cell-based, Homo sapiens; conditions: Homo sapiens, COR-L23;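 further: cell viability assay measuring how strongly compounds suppress growth of COR-L23 cells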
Description: SANGER: Inhibition of human COR-L23 cell growth in a cell viability assay.

DJM-1 = type: functional, cell-based, Homo sapiens; conditions: Homo sapiens, DJM-1;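 further: growth inhibition of human DJM-1 cells, read out by a cell viability assay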
Description: SANGER: Inhibition of human DJM-1 cell growth in a cell viability assay.

UACC-812 = type: functional, cell-based, Homo sapiens; conditions: Homo sapiens, UACC-812
Description: SANGER: Inhibition of human UACC-812 cell growth in a cell viability assay.

MDA-MB-134-VI = type: functional, cell-based, Homo sapiens; conditions: Homo sapiens, MDA-MB-134-VI
Description: SANGER: Inhibition of human MDA-MB-134-VI cell growth in a cell viability assay.

NY = type: functional, cell-based, Homo sapiens; conditions: Homo sapiens, NY
Description: SANGER: Inhibition of human NY cell growth in a cell viability assay.

NCI-H2087 = type: functional, cell-based, Homo sapiens; conditions: Homo sapiens, NCI-H2087;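 further: growth inhibition determined with a cell viability readout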
Description: SANGER: Inhibition of human NCI-H2087 cell growth in a cell viability assay.

U-87 MG = type: functional, cell-based, Homo sapiens, U-87MG ATCC; conditions: Homo sapiens, U-87 MG;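 further: growth inhibition of the cells measured with a viability assay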
Description: SANGER: Inhibition of human U-87-MG cell growth in a cell viability assay.

MPP-89 = type: functional, cell-based, Homo sapiens; conditions: Homo sapiens, MPP-89;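 further: growth inhibition of human MPP-89 cells, read out with a cell viability assay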
Description: SANGER: Inhibition of human MPP-89 cell growth in a cell viability assay.

U-698-M = type: functional, cell-based, Homo sapiens; conditions: Homo sapiens, U-698-M
Description: SANGER: Inhibition of human U-698-M cell growth in a cell viability assay.

KMS-12-PE = type: functional, cell-based, Homo sapiens; conditions: Homo sapiens, KMS-12-PE;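 further: growth inhibition of human KMS-12-PE cells, measured with a cell viability assay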
Description: SANGER: Inhibition of human KMS-12-PE cell growth in a cell viability assay.

NCI-H1522 = type: functional, cell-based, Homo sapiens; conditions: Homo sapiens, NCI-H1522;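 further: growth inhibition of NCI-H1522 cells, read out with a cell viability assay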
Description: SANGER: Inhibition of human NCI-H1522 cell growth in a cell viability assay.

U-251 = type: functional, cell-based, Homo sapiens; conditions: Homo sapiens, U-251;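 further: growth inhibition of human U-251 cells, read out through a cell viability assay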
Description: SANGER: Inhibition of human U251 cell growth in a cell viability assay.

DMS-153 = type: functional, cell-based, Homo sapiens; conditions: Homo sapiens, DMS-153
Description: SANGER: Inhibition of human DMS-153 cell growth in a cell viability assay.

RCM-1 = type: functional, cell-based, Homo sapiens; conditions: Homo sapiens, RCM-1;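 further: growth inhibition of the RCM-1 line, determined with a cell viability readout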
Description: SANGER: Inhibition of human RCM-1 cell growth in a cell viability assay.

ETK-1 = type: functional, cell-based, Homo sapiens; conditions: Homo sapiens, ETK-1;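 further: growth inhibition of human ETK-1 cells, read out with a cell viability assay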
Description: SANGER: Inhibition of human ETK-1 cell growth in a cell viability assay.

CAMA-1 = type: functional, cell-based, Homo sapiens; conditions: Homo sapiens, CAMA-1;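 further: growth inhibition of CAMA-1 cells, read out with a cell viability assay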
Description: SANGER: Inhibition of human CAMA-1 cell growth in a cell viability assay.

EVSA-T = type: functional, cell-based, Homo sapiens; conditions: Homo sapiens, EVSA-T;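 further: growth inhibition of EVSA-T cells, read out with a cell viability assay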
Description: SANGER: Inhibition of human EVSA-T cell growth in a cell viability assay.

PA-1 = type: functional, cell-based, Homo sapiens; conditions: Homo sapiens, PA-1;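 further: IC50 for suppression of PA-1 cell proliferation, determined with a cell viability read-out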
Description: SANGER: Inhibition of human PA-1 cell growth in a cell viability assay.

RS4-11 = type: functional, cell-based, Homo sapiens; conditions: Homo sapiens, RS4-11;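 further: growth inhibition of RS4-11 cells, read out by a cell viability assay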
Description: SANGER: Inhibition of human RS4-11 cell growth in a cell viability assay.

MC-CAR = type: functional, cell-based, Homo sapiens; conditions: Homo sapiens, MC-CAR;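 further: growth inhibition of the human MC-CAR cell line, read out by a cell viability assay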
Description: SANGER: Inhibition of human MC-CAR cell growth in a cell viability assay.

CAL-85-1 = type: functional, cell-based, Homo sapiens; conditions: Homo sapiens, CAL-85-1;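 further: growth inhibition of human CAL-85-1 cells, read out with a cell viability assay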
Description: SANGER: Inhibition of human CAL-85-1 cell growth in a cell viability assay.

A-431 = type: functional, cell-based, Homo sapiens; conditions: Homo sapiens, A-431;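 further: growth inhibition of A-431 cells, determined with a cell viability read-out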
Description: SANGER: Inhibition of human A431 cell growth in a cell viability assay.

MFM-223 = type: functional, cell-based, Homo sapiens; conditions: Homo sapiens, MFM-223
Description: SANGER: Inhibition of human MFM-223 cell growth in a cell viability assay.

SW1783 = type: functional, cell-based, Homo sapiens; conditions: Homo sapiens, SW1783;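 further: cell growth inhibition measured with a viability assay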
Description: SANGER: Inhibition of human SW1783 cell growth in a cell viability assay.

SJSA-1 = type: functional, cell-based, Homo sapiens; conditions: Homo sapiens, SJSA-1;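 further: growth inhibition of human SJSA-1 cells, read out through a cell viability measurement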
Description: SANGER: Inhibition of human SJSA-1 cell growth in a cell viability assay.

Cc1cc([N+](=O)[O-])ccc1NS(=O)(=O)c1cc(Cl)ccc1Cl
IC50 (Panc1005): 5.37 µM
IC50 (IMR-5): 11.2 µM
IC50 (SJRH30): 2.07 µM
IC50 (REH): 11.5 µM
IC50 (CHP-212): 2.58 µM
IC50 (HCC1569): 3.48 µM
IC50 (CAL-12T): 1.02 µM
IC50 (RT-112): 6.11 µM
IC50 (SK-MEL-2): 1.72 µM
IC50 (MHH-NB-11): 20.7 µM
IC50 (KM12): 5.99 µM
IC50 (D-263MG): 10.7 µM
IC50 (BCPAP): 2.05 µM
IC50 (MFH-ino): 0.506 µM
IC50 (SF-126): 9.88 µM
IC50 (A2058): 2.03 µM
IC50 (SIMA): 13.8 µM
IC50 (EW-18): 9.58 µM
IC50 (Ca-Ski): 12.1 µM
IC50 (PF-382): 7.73 µM
IC50 (CTB-1): 30.5 µM
IC50 (MHH-PREB-1): 5.95 µM
IC50 (SK-MEL3): 4.68 µM
IC50 (COR-L23): 2.63 µM
IC50 (DJM-1): 10.5 µM
IC50 (UACC-812): > 32 µM
IC50 (MDA-MB-134-VI): > 32 µM
IC50 (NY): 3.32 µM
IC50 (NCI-H2087): 2.16 µM
IC50 (U-87 MG): 22.4 µM
IC50 (MPP-89): 20.1 µM
IC50 (U-698-M): 1.81 µM
IC50 (KMS-12-PE): > 32 µM
IC50 (NCI-H1522): > 32 µM
IC50 (U-251): 2.17 µM
IC50 (DMS-153): 29.1 µM
IC50 (RCM-1): 8.76 µM
IC50 (ETK-1): 6.35 µM
IC50 (CAMA-1): 0.911 µM
IC50 (EVSA-T): 11.9 µM
IC50 (PA-1): 2.9 µM
IC50 (RS4-11): 13.2 µM
IC50 (MC-CAR): 8.99 µM
IC50 (CAL-85-1): 3.61 µM
IC50 (A-431): 2.09 µM
IC50 (MFM-223): > 32 µM
IC50 (SW1783): 7.15 µM
IC50 (SJSA-1): 5.7 µM

Oc1ccc2ccccc2c1SSc1c(O)ccc2ccccc12
IC50 (Panc1005): > 32 µM
IC50 (IMR-5): > 32 µM
IC50 (SJRH30): > 32 µM
IC50 (REH): 3.37 µM
IC50 (CHP-212): 9.1 µM
IC50 (HCC1569): > 32 µM
IC50 (CAL-12T): 5.64 µM
IC50 (RT-112): 27.3 µM
IC50 (SK-MEL-2): > 32 µM
IC50 (MHH-NB-11): > 32 µM
IC50 (KM12): > 32 µM
IC50 (D-263MG): > 32 µM
IC50 (BCPAP): > 32 µM
IC50 (MFH-ino): > 32 µM
IC50 (SF-126): > 32 µM
IC50 (A2058): > 32 µM
IC50 (SIMA): > 32 µM
IC50 (EW-18): > 32 µM
IC50 (Ca-Ski): > 32 µM
IC50 (PF-382): 5.35 µM
IC50 (CTB-1): 12.7 µM
IC50 (MHH-PREB-1): 3.47 µM
IC50 (SK-MEL3): > 32 µM
IC50 (COR-L23): 11.8 µM
IC50 (DJM-1): > 32 µM
IC50 (UACC-812): > 32 µM
IC50 (MDA-MB-134-VI): > 32 µM
IC50 (NY): > 32 µM
IC50 (NCI-H2087): > 32 µM
IC50 (U-87 MG): > 32 µM
IC50 (MPP-89): > 32 µM
IC50 (U-698-M): 3.24 µM
IC50 (KMS-12-PE): > 32 µM
IC50 (NCI-H1522): > 32 µM
IC50 (U-251): > 32 µM
IC50 (DMS-153): > 32 µM
IC50 (RCM-1): > 32 µM
IC50 (ETK-1): > 32 µM
IC50 (CAMA-1): > 32 µM
IC50 (EVSA-T): > 32 µM
IC50 (PA-1): 27.1 µM
IC50 (RS4-11): 23.2 µM
IC50 (MC-CAR): 5.71 µM
IC50 (CAL-85-1): 7.37 µM
IC50 (A-431): > 32 µM
IC50 (MFM-223): > 32 µM
IC50 (SW1783): > 32 µM
IC50 (SJSA-1): > 32 µM
